Tests used:
NHE3 [1] = target: T1, NHE3 (Homo sapiens, UniProt P48764); test: Cell-based assay of NHE-3 activity (pre-incubation inhibition), human; settings: human Preincubation
T1 construct: expressed in transfected cells
T1 sequence (P48764 26-834): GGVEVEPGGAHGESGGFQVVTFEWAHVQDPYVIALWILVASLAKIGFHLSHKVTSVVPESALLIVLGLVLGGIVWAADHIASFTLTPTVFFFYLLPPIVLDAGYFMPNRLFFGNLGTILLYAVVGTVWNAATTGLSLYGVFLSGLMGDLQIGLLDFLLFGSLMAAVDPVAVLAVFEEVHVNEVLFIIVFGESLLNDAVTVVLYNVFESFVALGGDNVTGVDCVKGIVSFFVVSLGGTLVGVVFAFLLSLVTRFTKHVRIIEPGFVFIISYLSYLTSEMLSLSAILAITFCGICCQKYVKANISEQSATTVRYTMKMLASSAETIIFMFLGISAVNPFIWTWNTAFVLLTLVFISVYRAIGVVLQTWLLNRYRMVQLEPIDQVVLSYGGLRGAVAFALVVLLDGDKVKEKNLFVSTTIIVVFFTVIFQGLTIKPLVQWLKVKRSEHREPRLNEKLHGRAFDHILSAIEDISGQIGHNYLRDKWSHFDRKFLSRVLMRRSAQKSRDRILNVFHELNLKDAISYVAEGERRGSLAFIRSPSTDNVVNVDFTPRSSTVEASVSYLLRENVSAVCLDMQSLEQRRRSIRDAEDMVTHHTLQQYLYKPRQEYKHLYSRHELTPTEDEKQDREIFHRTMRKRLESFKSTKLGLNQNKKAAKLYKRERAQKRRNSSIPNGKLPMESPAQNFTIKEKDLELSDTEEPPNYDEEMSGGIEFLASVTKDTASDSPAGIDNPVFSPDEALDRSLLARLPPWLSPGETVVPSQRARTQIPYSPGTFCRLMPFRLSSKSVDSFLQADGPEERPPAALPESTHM
T1 sequence (Q99653 2-195 partner limits assumed): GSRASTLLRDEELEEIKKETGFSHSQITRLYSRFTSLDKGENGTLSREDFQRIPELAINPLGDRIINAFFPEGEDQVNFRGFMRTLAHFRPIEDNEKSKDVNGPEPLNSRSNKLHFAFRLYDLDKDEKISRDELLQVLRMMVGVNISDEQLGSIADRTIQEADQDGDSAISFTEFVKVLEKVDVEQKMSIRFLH
In short: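 Activity read as initial rate of BCECF fluorescence ratio change per minute (ex 439/505, em 538 nm) following NH4Cl prepulse acid loading. Compound (0–30 μM) present during 10 min Na+-free acidification at room temperature; cells were PS120 fibroblasts stably co-expressing human NHE3 and NHERF2.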

NHE3 [2] = target: T1, NHE3; test: Cell-based assay of NHE-3 activity (persistent inhibition), human; settings: human Persistence, 60 min incubation then washout
In short: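 Persistent inhibition: compound (0-30 μM, 60 min, RT, NaCl-HEPES pH 7.4) removed before assay. Human NHE3/NHERF2 PS120 cells were then BCECF-loaded during NH4Cl pulse (30 min, 37 °C), acidified in Na+-free buffer, and Na+ added 10 min after washout; antiport measured as initial fluorescence-ratio change per minute.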

% inhibition (NHE3 [1]) | pIC50 (NHE3 [1]; 0-30 μM test compound) | % inhibition (NHE3 [2]) | IC50 (NHE3 [2]) [µM] | pIC50 (NHE3 [2]) | IC50 (NHE3 [1]; 0-30 μM test compound) [µM] | Structure (SMILES)
C (>70%) | C (NHE3 pIC50 > 7) | C (>70%) | 0.1 to 1 | – | – | Cc1cc(S(=O)(=O)NCCOCCOCCNC(=O)NCCCCNC(=O)NCCOCCOCCNS(=O)(=O)c2cc(C)c(O[C@H]3c4cc(Cl)cc(Cl)c4C[C@@H]3N3CCC[C@@H](N)C3)cc2C)c(C)cc1O[C@H]1c2cc(Cl)cc(Cl)c2C[C@@H]1N1CCC[C@@H](N)C1 [Example 81, 3-[2-(2-[2-[(4-[[(1S,2S)-2-[(3R)-3-Aminopiperidin-1-yl]-4,6-dichloro-2,3-dihydro-1H-inden-1-yl]oxy]-2,5-dimethylbenzene)sulfonamido]ethoxy]ethoxy)ethyl]-1-[4-([[2-(2-[2-[(4-[[(1S,2S)-2-[(3R)-3-aminopiperidin-1-yl]-4,6-dichloro-2,3-dihydro-1H-inden-1-yl]oxy]-2,5-dimethylbenzene)sulfonamido]ethoxy]ethoxy)ethyl]carbamoyl]amino)butyl]urea]
C (>70%) | C (NHE3 pIC50 > 7) | C (>70%) | – | C (NHE3 pIC50 > 7) | – | CC1(C)O[C@H]2[C@@H](OC(C)(C)O[C@H]2C(=O)NCc2cn(CCCCNS(=O)(=O)c3ccc(O[C@H]4c5cc(Cl)cc(Cl)c5C[C@@H]4N4CCC[C@@H](N)C4)cc3)nn2)[C@@H](C(=O)NCc2cn(CCCCNS(=O)(=O)c3ccc(O[C@H]4c5cc(Cl)cc(Cl)c5C[C@@H]4N4CCC[C@@H](N)C4)cc3)nn2)O1 [Example 60, (4R,4aS,8S,8aR)—N^4,N^8-Bis([1-(4-[4-((1S,2S)-2-[(3R)-3-aminopiperidin-1-yl]-4,6-dichloro-2,3-dihydro-1H-inden-1-yloxy)phenylsulfonamide]butyl)-1H-1,2,3-traizol-4-yl]methyl)-2,2,6,6-tetramethyl-tetrahydro-[1,3]dioxino[5,4-d][1,3]dioxine-4,8-dicarboxamide]
C (>70%) | – | B (40-70%) | – | A (NHE3 pIC50 < 6) | 0.1 to 1 | Cc1cc(S(=O)(=O)NCCOCCOCCNC(=O)NCCCCNC(=O)NCCOCCOCCNS(=O)(=O)c2ccc(O[C@H]3c4cc(Cl)cc(Cl)c4C[C@@H]3N3CCN(C)CC3)c(C)c2)ccc1O[C@H]1c2cc(Cl)cc(Cl)c2C[C@@H]1N1CCN(C)CC1 [Example 73]
C (>70%) | C (NHE3 pIC50 > 7) | C (>70%) | – | C (NHE3 pIC50 > 7) | – | Cc1cc(S(=O)(=O)N[C@@H]2CCN(CCOCCNC(=O)NCCCCNC(=O)NCCOCCN3CC[C@@H](NS(=O)(=O)c4ccc(O[C@H]5c6cc(Cl)cc(C)c6C[C@@H]5N5CCC[C@@H](N(C)C)C5)c(C)c4)C3)C2)ccc1O[C@H]1c2cc(Cl)cc(C)c2C[C@@H]1N1CCC[C@@H](N(C)C)C1 [Example 113, 4-([(1S,2S)-6-Chloro-2-[(R)-3-(dimethylamino)piperidin-1-yl]-4-methyl-2,3-dihydro-1H-inden-1-yl]oxy)-N—[(R)-1-(20-[(R)-3-([4-([(1S,2S)-6-chloro-2-[(R)-3-(dimethylamino)piperidin-1-yl]-4-methyl-2,3-dihydro-1H-inden-1-yl]oxy)-3-methylphenyl]sulfonamido)pyrrolidin-1-yl]-7,14-dioxo-3,18-dioxa-6,8,13,15-tetraazaicosyl)pyrrolidin-3-yl]-3-methylbenzenesulfonamide; tetra(trifluoroacetate)]
C (>70%) | C (NHE3 pIC50 > 7) | C (>70%) | 0.1 to 1 | – | – | Cc1cc(S(=O)(=O)NCCOCCOCCNC(=O)NCCCCNC(=O)NCCOCCOCCNS(=O)(=O)c2cc(C)c(O[C@H]3c4cc(Cl)cc(Cl)c4C[C@@H]3N(C)C)cc2F)c(F)cc1O[C@H]1c2cc(Cl)cc(Cl)c2C[C@@H]1N(C)C [Example 90, 3-[2-(2-[2-[(4-[[(1S,2S)-4,6-Dichloro-2-(dimethylamino)-2,3-dihydro-1H-inden-1-yl]oxy]-2-fluoro-5-methylbenzene)sulfonamido]ethoxy]ethoxy)ethyl]-1-[4-([[2-(2-[2-[(4-[[(1S,2S)-4,6-dichloro-2-(dimethylamino)-2,3-dihydro-1H-inden-1-yl]oxy]-2-fluoro-5-methylbenzene)sulfonamido]ethoxy]ethoxy)ethyl]carbamoyl]amino)butyl]urea; bis(trifluoroacetic acid)]
A (NHE3 < 40%) | C (NHE3 pIC50 > 7) | B (40-70%) | 0.1 to 1 | – | – | COc1cc(Cl)cc2c1C[C@H](N1CCC[C@@H](N)C1)[C@H]2Oc1ccc(S(=O)(=O)NCCOCCOCCNC(=O)NCCCCNC(=O)NCCOCCOCCNS(=O)(=O)c2ccc(O[C@H]3c4cc(Cl)cc(OC)c4C[C@@H]3N3CCC[C@@H](N)C3)c(C)c2)cc1C [Example 9, 3-[2-(2-[2-[(4-[[(1S,2S)-2-[(3R)-3-Aminopiperidin-1-yl]-6-chloro-4-methoxy-2,3-dihydro-1H-inden-1-yl]oxy]-3-methylbenzene)sulfonamido]ethoxy]ethoxy)ethyl]-1-[4-([[2-(2-[2-[(4-[[(1S,2S)-2-[(3R)-3-aminopiperidin-1-yl]-6-chloro-4-methoxy-2,3-dihydro-1H-inden-1-yl]oxy]-3-methylbenzene)sulfonamido]ethoxy]ethoxy)ethyl]carbamoyl]amino)butyl]urea bis(trifluoroacetic acid)]
C (>70%) | – | C (>70%) | 0.1 to 1 | – | – | CN1CCN([C@H]2Cc3c(Cl)cc(Cl)cc3[C@@H]2Oc2ccc(S(=O)(=O)NCCOCCOCCNC(=O)NCCCCNC(=O)NCCOCCOCCNS(=O)(=O)c3ccc(O[C@H]4c5cc(Cl)cc(Cl)c5C[C@@H]4N4CCN(C)CC4)cc3)cc2)CC1 [Example 72, 3-[2-(2-[2-[(4-[[(1S,2S)-4,6-Dichloro-2-(4-methylpiperazin-1-yl)-2,3-dihydro-1H-inden-1-yl]oxy]benzene)sulfonamido]ethoxy]ethoxy)ethyl]-1-[4-([[2-(2-[2-[(4-[[(1S,2S)-4,6-dichloro-2-(4-methylpiperazin-1-yl)-2,3-dihydro-1H-inden-1-yl]oxy]benzene)sulfonamido]ethoxy]ethoxy)ethyl]carbamoyl]amino)butyl]urea a; bis(trifluoroacetic acid)]
C (>70%) | C (NHE3 pIC50 > 7) | C (>70%) | – | C (NHE3 pIC50 > 7) | – | N[C@@H]1CCCN([C@H]2Cc3c(Cl)cc(Cl)cc3[C@@H]2Oc2ccc(S(=O)(=O)N3CC[C@H](OCCOCCNC(=O)NCCCCNC(=O)NCCOCCO[C@H]4CCN(S(=O)(=O)c5ccc(O[C@H]6c7cc(Cl)cc(Cl)c7C[C@@H]6N6CCC[C@@H](N)C6)cc5)C4)C3)cc2)C1 [Example 94, 3-[2-(2-[[(3S)-1-[(4-[[(1S,2S)-2-[(3R)-3-Aminopiperidin-1-yl]-4,6-dichloro-2,3-dihydro-1H-inden-1-yl]oxy]benzene)sulfonyl]pyrrolidin-3-yl]oxy]ethoxy)ethyl]-1-[4-([[2-(2-[[(3S)-1-[(4-[[(1S,2S)-2-[(3R)-3-aminopiperidin-1-yl]-4,6-dichloro-2,3-dihydro-1H-inden-1-yl]oxy]benzene)sulfonyl]pyrrolidin-3-yl]oxy]ethoxy)ethyl]carbamoyl]amino)butyl]urea]
C (>70%) | C (NHE3 pIC50 > 7) | C (>70%) | – | C (NHE3 pIC50 > 7) | – | O=C(NCCCCNC(=O)NCCOCCOCCNS(=O)(=O)c1ccc(O[C@H]2c3cc(Cl)cc(Cl)c3C[C@@H]2N2CC3CCC2C3)cc1)NCCOCCOCCNS(=O)(=O)c1ccc(O[C@H]2c3cc(Cl)cc(Cl)c3C[C@@H]2N2CC3CCC2C3)cc1 [Example 68]

From patent US11242337B2, “Compounds useful for treating gastrointestinal tract disorders” (Ardelyx, Inc., priority 2017, dated 2022)
